Earlier results on two substances are cited in article PMC2992174 (Journal of nuclear medicine : official publication, Society …, 2010).

Positions of bridges follow the written chain, without caps; N, C: chain ends. No end group written: not given here.

The test system of one data set is IPA. To be noted: ^111In-labeled peptide, IPA in vivo.

On to CGGRLGPFC-NH2 (disulfide 1-9), for which, in the data set with IPA, the background activity is 0.14 ± 0.02 %ID/g and the target uptake was 0.37 ± 0.06 %ID/g.

On to Fe-TAFC, for which the “uptake by Candida albicans” value with Candida albicans is given as “inefficient”.
